Data as given in ChEMBL document CHEMBL4311992, “Discovery of 3-(((9H-purin-6-yl)amino)methyl)-4,6-dimethylpyridin-2(1H)-one derivatives as novel tubulin polymerization inhibitors for treatment of cancer” (Eur J Med Chem, 2019).
The source made the active and inactive calls. The calls are words filed in the database; no cut-off is given here.

Columns and labels:
[1] = molecular target: Serine/threonine-protein kinase tousled-like 1 (Homo sapiens) (UniProt Q9UKI8); assay: Inhibition of recombinant full-length human TLK1 assessed as residual activity at 10 uM using casein as substrate measured after 40 mins in presence of [gamma33P]ATP by scintillation counting method
[2] = test system: Angiopoietin-1 receptor (Homo sapiens), Q02763 [Q939H,Q940H]; assay: Inhibition of human Tie2 Q939H/Q940H mutant (771 to end residues) using poly(Glu, Tyr) 4:1 as substrate measured after 40 mins in presence of [gamma33P]ATP by scintillation counting method; parameters: scale not given: the % may be the effect or the level left
[3] = test system: TGF-beta receptor type-1 (Homo sapiens), P36897 [T204D]; assay: Inhibition of human TGFBR1 T204D mutant (200 to end residues) using casein as substrate measured after 40 mins in presence of [gamma33P]ATP by scintillation counting method; parameters: scale not given: the % may be the effect or the level left
[4] = molecular target: MAP kinase-activated protein kinase 3 (Homo sapiens) (UniProt Q16644); assay: Inhibition of recombinant human MAPKAPK3 (2 to end residues) assessed as residual activity at 10 uM using KKLNRTLSVA as substrate measured after 40 mins in presence of [gamma33P]ATP by scintillation counting method
[5] = molecular target: Testis-specific serine/threonine-protein kinase 2 (Homo sapiens) (UniProt Q96PF2); assay: Inhibition of recombinant full-length human TSSK2 assessed as residual activity at 10 uM using KKKVSRSGLYRSPSMPENLNRPR as substrate measured after 40 mins in presence of [gamma33P]ATP by scintillation counting method
[6] = molecular target: Aurora kinase C (Homo sapiens) (UniProt Q9UQB9); assay: Inhibition of recombinant human AURKC (35 to end residues) assessed as residual activity at 10 uM using AKRRRLSSLRA as substrate measured after 40 mins in presence of [gamma33P]ATP by scintillation counting method
[7] = molecular target: Cytoplasmic tyrosine-protein kinase BMX (Homo sapiens) (UniProt P51813); assay: Inhibition of full-length recombinant human BMX assessed as residual activity at 10 uM using poly(Glu, Tyr) 4:1 as substrate measured after 40 mins in presence of [gamma33P]ATP by scintillation counting method
[8] = molecular target: Inhibitor of nuclear factor kappa-B kinase subunit beta (Homo sapiens) (UniProt O14920); assay: Inhibition of recombinant full-length human IKKbeta assessed as residual activity at 10 uM using peptide substrate measured after 40 mins in presence of [gamma33P]ATP by scintillation counting method
Homo sapiens [9] = species: Homo sapiens; assay: Inhibition of recombinant human ARAF Y301D/Y302D mutant (273 to end residues) assessed as residual activity at 10 uM using myelin basic protein as substrate measured after 40 mins in presence of [gamma33P]ATP by scintillation counting method
[10] = molecular target: Cyclin-dependent kinase 5/CDK5 activator 1 (Homo sapiens) (UniProt Q00535+Q15078); assay: Inhibition of recombinant full-length human CDK5/p35 assessed as residual activity at 10 uM using histone H1 as substrate measured after 40 mins in presence of [gamma33P]ATP by scintillation counting method; assay type: protein-complex assay
[11] = molecular target: CDK9/cyclin T1 (Homo sapiens) (UniProt O60563+P50750); assay: Inhibition of recombinant full length human CDK9/cyclinT1 assessed as residual activity at 10 uM using KTFCGTPEYLAPEVRREPRILSEEEQEMFRDFDYIADWC as substrate measured after 40 mins in presence of [gamma33P]ATP by scintillation counting method; assay type: protein-complex assay
[12] = molecular target: Serine/threonine-protein kinase 35 (Homo sapiens) (UniProt Q8TDR2); assay: Inhibition of recombinant full length human CLIK1 assessed as residual activity at 10 uM using RSRSRSRSRSRSRSR as substrate measured after 40 mins in presence of [gamma33P]ATP by scintillation counting method
HCT-116 = assay: Antitumor activity against human HCT116 cells xenografted in nude BALB/c mouse assessed as reduction in tumor weight at 80 mg/kg, po administered once daily for 4 weeks measured every 3 days during compound dosing; assay type: functional, organism-based
[13] = Toxicity in nude BALB/c mouse xenografted with human HCT116 cells assessed as change in body weight at 40 mg/kg, po administered once daily for 4 weeks measured every 3 days during compound dosing; assay type: organism-based; conditions: in vivo
[14] = Hepatotoxicity in nude BALB/c mouse at 80 mg/kg, po administered once daily for 4 weeks measured post-last dose by hematoxylin and eosin staining-based assay; assay type: toxicity, organism-based; conditions: in vivo, 672 h
[15] = molecular target: Rhodopsin kinase GRK7 (Homo sapiens) (UniProt Q8WTQ7); assay: Inhibition of recombinant full-length human GRK7 assessed as residual activity at 10 uM using casein as substrate measured after 40 mins in presence of [gamma33P]ATP by scintillation counting method
Homo sapiens [16] = species: Homo sapiens; assay: Inhibition of recombinant full-length human JNK2alpha2 S51N mutant assessed as residual activity at 10 uM using ATF2 as substrate measured after 40 mins in presence of [gamma33P]ATP by scintillation counting method
[17] = molecular target: LIM domain kinase 1 (Homo sapiens) (UniProt P53667); assay: Inhibition of recombinant human LIMK1 (285 to 638 residues) assessed as residual activity at 10 uM using cofilin as substrate measured after 40 mins in presence of [gamma33P]ATP by scintillation counting method
[18] = molecular target: Mitogen-activated protein kinase kinase kinase 11 (Homo sapiens) (UniProt Q16584); assay: Inhibition of human MLK3 assessed as residual activity at 10 uM by radiometric method
[19] = molecular target: Receptor-interacting serine/threonine-protein kinase 2 (Homo sapiens) (UniProt O43353); assay: Inhibition of human RIPK2 (1 to 299 residues) using myelin basic protein as substrate measured after 120 mins in presence of [gamma33P]ATP by scintillation counting method; parameters: scale not given: the % may be the effect or the level left
[20] = test system: Proto-oncogene tyrosine-protein kinase Src (Homo sapiens), P12931 [T341M]; assay: Inhibition of recombinant full-length human Src T341M mutant assessed as residual activity at 10 uM using GGEEEEYFELVKKKK as substrate measured after 40 mins in presence of [gamma33P]ATP by scintillation counting method
Homo sapiens [21] = species: Homo sapiens; assay: Inhibition of human activated Tec F514V mutant (174 to end residues) using EFPIYDFLPAKKK as substrate measured after 40 mins in presence of [gamma33P]ATP by scintillation counting method; parameters: scale not given: the % may be the effect or the level left
[22] = molecular target: Phosphatidylinositol 4-phosphate 5-kinase type-1 gamma (Homo sapiens) (UniProt O60331); assay: Inhibition of recombinant full-length human PIP5K1gamma assessed as residual activity at 10 uM using phosphatidylinositol 4-phosphate as substrate measured after 40 mins by HTRF assay
[23] = test system: PI3-kinase p110-alpha/p85-alpha (Homo sapiens), P27986+P42336 [E545K]; assay: Inhibition of recombinant full-length human PI3K p110alpha/p85alpha E545K mutant assessed as residual activity at 10 uM using phosphatidylinositol-4, 5-bisphosphate as substrate measured after 40 mins by fluorescence assay; assay type: protein-complex assay
[24] = molecular target: Phosphatidylinositol 5-phosphate 4-kinase type-2 alpha (Homo sapiens) (UniProt P48426); assay: Inhibition of recombinant full-length human PIP4K2alpha assessed as residual activity at 10 uM using phosphatidylinositol 5-phosphate as substrate measured after 40 mins by HTRF assay
Chain of Phosphatidylinositol 5-phosphate 4-kinase type-2 alpha (Homo sapiens) (P48426 whole entry): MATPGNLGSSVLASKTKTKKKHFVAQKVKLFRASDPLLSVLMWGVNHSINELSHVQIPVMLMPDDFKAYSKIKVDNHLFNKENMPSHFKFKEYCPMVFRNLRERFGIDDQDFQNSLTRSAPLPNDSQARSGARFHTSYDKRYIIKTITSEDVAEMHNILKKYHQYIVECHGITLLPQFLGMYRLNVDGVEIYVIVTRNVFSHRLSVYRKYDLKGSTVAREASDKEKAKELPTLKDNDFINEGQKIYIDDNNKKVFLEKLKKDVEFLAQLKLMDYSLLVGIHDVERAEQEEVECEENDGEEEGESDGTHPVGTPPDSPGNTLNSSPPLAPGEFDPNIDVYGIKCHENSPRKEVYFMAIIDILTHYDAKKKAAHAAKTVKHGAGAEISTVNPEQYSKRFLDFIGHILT

Chain of Aurora kinase C (Homo sapiens) (Q9UQB9 whole entry): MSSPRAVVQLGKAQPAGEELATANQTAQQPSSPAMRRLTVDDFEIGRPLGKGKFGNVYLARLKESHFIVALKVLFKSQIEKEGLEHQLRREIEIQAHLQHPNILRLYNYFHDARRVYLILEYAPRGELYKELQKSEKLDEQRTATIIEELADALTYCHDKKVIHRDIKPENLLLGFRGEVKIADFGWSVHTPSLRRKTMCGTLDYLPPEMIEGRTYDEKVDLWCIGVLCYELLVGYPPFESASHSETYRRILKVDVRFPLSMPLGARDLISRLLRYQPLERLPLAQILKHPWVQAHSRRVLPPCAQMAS
Chain of Mitogen-activated protein kinase kinase kinase 11 (Homo sapiens) (Q16584 whole entry, looked up, the tested form may be a part): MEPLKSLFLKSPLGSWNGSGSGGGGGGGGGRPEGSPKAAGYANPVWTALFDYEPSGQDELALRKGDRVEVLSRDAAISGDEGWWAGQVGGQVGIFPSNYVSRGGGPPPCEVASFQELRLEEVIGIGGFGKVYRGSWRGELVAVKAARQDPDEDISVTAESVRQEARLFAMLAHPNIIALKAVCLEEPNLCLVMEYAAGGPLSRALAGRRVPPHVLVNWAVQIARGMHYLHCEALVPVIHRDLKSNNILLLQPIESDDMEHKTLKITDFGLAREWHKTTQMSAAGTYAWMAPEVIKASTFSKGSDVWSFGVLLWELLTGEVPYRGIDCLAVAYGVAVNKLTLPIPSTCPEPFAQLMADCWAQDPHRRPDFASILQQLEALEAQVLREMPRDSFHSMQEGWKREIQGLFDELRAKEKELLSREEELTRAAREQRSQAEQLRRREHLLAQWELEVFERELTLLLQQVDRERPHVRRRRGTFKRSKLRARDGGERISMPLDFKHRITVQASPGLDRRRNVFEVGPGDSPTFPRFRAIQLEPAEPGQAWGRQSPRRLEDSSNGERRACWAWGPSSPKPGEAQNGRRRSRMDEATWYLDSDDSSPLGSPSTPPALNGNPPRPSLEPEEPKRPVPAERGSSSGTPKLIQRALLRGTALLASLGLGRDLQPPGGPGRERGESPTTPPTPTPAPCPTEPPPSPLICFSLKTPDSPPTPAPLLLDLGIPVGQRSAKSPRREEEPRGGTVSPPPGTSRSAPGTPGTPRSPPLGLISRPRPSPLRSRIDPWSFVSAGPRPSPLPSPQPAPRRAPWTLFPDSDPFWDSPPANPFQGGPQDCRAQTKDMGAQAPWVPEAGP
Chain of Serine/threonine-protein kinase tousled-like 1 (Homo sapiens) (Q9UKI8 whole entry): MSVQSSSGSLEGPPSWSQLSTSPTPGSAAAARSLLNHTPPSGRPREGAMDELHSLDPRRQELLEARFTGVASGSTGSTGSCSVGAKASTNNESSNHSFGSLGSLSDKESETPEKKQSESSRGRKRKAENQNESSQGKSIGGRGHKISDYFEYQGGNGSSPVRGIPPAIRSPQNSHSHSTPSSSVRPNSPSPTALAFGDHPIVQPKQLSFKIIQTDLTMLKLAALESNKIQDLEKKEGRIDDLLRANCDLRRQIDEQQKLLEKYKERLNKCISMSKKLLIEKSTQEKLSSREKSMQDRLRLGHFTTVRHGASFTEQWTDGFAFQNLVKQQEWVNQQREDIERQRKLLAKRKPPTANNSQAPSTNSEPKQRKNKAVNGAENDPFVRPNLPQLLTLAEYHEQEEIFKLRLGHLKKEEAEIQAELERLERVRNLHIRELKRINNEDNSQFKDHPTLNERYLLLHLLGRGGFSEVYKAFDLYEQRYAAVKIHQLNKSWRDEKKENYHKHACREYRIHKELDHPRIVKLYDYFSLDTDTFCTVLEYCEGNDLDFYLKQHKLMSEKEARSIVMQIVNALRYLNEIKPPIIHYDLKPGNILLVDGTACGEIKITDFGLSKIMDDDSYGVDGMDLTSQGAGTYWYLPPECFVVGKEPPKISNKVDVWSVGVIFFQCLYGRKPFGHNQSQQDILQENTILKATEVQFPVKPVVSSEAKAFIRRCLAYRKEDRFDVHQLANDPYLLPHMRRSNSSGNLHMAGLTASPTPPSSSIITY
Chain of MAP kinase-activated protein kinase 3 (Homo sapiens) (Q16644 whole entry, looked up): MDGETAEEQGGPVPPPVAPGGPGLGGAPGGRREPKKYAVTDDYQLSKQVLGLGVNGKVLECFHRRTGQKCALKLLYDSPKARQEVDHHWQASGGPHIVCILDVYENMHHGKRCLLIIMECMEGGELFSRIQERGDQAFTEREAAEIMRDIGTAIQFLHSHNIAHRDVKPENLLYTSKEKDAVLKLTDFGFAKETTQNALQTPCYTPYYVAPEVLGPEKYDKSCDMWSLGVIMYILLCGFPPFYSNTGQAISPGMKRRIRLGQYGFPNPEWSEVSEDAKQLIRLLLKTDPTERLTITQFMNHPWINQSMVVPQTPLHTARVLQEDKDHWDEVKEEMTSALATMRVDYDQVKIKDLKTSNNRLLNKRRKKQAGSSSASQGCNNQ
Chain of Receptor-interacting serine/threonine-protein kinase 2 (Homo sapiens) (O43353 whole entry, the tested form may be a part): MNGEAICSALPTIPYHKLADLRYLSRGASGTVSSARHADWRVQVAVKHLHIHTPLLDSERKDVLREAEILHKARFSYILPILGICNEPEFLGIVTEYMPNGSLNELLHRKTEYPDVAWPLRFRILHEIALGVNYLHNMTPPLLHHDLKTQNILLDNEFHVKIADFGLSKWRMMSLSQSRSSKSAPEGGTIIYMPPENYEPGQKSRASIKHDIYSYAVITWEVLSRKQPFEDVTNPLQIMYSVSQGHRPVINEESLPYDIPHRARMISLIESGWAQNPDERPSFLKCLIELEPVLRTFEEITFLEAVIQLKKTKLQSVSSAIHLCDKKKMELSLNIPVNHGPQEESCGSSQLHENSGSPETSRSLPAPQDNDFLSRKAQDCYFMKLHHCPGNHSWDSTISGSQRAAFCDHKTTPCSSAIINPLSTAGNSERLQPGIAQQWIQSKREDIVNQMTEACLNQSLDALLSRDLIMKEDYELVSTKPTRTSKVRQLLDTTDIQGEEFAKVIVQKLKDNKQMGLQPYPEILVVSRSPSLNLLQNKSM
Chain of Testis-specific serine/threonine-protein kinase 2 (Homo sapiens) (Q96PF2 whole entry): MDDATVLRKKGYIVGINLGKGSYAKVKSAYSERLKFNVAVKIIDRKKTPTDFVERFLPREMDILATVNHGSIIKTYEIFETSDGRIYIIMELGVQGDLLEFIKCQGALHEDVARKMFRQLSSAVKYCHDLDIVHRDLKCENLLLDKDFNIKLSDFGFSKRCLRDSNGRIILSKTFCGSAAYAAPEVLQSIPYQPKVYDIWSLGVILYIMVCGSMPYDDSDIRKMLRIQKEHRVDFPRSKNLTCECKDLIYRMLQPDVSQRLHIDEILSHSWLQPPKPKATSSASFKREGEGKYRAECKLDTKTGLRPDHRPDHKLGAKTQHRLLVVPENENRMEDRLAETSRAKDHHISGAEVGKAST
Chain of Phosphatidylinositol 4-phosphate 5-kinase type-1 gamma (Homo sapiens) (O60331 whole entry): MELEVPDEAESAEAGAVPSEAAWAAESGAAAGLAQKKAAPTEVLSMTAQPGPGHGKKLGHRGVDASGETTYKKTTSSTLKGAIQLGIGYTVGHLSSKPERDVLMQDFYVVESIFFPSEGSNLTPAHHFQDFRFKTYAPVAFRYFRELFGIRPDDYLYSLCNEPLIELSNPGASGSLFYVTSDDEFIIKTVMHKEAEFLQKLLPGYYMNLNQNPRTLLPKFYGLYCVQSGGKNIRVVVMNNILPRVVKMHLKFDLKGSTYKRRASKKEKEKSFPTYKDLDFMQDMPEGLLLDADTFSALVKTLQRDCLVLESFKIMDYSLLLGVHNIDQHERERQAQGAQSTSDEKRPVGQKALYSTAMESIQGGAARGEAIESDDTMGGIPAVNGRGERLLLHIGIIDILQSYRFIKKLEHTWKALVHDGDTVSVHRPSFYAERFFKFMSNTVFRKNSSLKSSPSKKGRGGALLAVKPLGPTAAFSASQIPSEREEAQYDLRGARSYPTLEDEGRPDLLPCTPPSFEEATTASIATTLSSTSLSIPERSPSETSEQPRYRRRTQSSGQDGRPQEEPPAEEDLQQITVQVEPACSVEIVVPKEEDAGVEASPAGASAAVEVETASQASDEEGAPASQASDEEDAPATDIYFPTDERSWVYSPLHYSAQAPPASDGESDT
Chain of TGF-beta receptor type-1 (Homo sapiens), P36897 [T204D] (P36897 whole entry T204D): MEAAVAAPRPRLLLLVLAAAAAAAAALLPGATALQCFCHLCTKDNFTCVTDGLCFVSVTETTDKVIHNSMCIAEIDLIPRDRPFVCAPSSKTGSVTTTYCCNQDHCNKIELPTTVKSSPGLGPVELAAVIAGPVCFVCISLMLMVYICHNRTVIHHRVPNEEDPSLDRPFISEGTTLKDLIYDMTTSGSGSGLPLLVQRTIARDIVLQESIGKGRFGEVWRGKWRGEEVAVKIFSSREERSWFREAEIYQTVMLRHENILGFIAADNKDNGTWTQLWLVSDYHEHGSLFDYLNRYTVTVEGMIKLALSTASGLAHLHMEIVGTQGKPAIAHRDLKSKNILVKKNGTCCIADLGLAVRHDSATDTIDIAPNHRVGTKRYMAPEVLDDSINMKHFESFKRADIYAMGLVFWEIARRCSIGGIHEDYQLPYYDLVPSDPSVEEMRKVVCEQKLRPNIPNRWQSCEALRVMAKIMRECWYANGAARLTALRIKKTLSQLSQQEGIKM

Question: Which results are given for Cc1cc(C)c(CNc2nc(Cl)nc3c2ncn3C2CCCC2)c(=O)[nH]1?
Answer: Activity [1]: 97%; Activity [2]: 75.5%; Activity [3]: 98%; Activity [4]: 106%; Activity [5]: 117%; Activity [6]: 106%; Activity [7]: 132%; Activity [8]: 102%; Activity (Homo sapiens [9]): 122%; Activity [10]: 108%; Activity [11]: 106%; Activity [12]: 65.5%; Activity (HCT-116): Active; Activity [13]: Non-Toxic; Activity [14]: Non-Toxic; Activity [15]: 102%; Activity (Homo sapiens [16]): 103%; Activity [17]: 101%; Activity [18]: 104%; Activity [19]: 106%; Activity [20]: 122%; Activity (Homo sapiens [21]): 96.5%; Activity [22]: 99.5%; Activity [23]: 93.5%; Activity [24]: 108%
